Reference: US8158442B2, “Antagonists of bitter taste receptors and uses thereof” (Deutsches Institut Fuer Ernaehrungsforschung …, priority 2007, dated 2012)

Experiments:
TAS2R38 [1] = molecular target: T1, TAS2R38 (Homo sapiens, UniProt P59533, A49P/I296V); assay: Calcium imaging (FLIPR) of TAS2R38 transfected cells, antagonists applied as mixture with TAS2R38 agonists; type: cell-based; conditions: for inhibition of the responses of TAS2R38 agonists: mixture with 0.03 mM PROP, 0.03 mM PTC or 1 mM MET, 20 mM DMTU, 5 mM DETU or 0.1 mM MBI, FIG. 3
T1 construct: expressed in transfected cells; host or cells: HEK-293T cells stably expressing the chimeric G-protein subunit G16gust44
T1 sequence (P59533 1-333 A49P/I296V): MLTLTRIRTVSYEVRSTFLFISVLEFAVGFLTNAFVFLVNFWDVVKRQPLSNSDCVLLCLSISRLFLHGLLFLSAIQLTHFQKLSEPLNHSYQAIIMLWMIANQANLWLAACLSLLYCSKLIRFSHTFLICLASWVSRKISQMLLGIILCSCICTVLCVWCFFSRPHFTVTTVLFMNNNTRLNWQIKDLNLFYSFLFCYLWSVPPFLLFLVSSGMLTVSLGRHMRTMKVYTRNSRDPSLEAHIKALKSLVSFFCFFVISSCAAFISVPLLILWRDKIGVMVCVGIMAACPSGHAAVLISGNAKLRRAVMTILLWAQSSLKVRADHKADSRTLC
Text: (§1) Human TAS2R38 cDNAs encoding the PAV form of the receptor was fused with a plasma membrane-targeting sequence of the rat somatostatin type 3 receptor at the N terminus of the recombinant polypeptide and a herpes simplex virus glycoprotein D (HSV) epitope at its C terminus (Bufe B., et al. (2002) Nat Genet 32:397-401). The constructs were transiently transfected into human embryonic kidney (HEK)-293T cells that stably express the chimeric G-protein subunit G16gust44 (Ueda T., et al. (2003) J Neurosci 23:7376-7380) using Lipofectamine 2000 (Invitrogen). They were then seeded at a density of ˜20-30% and transfected at ˜60% confluency in 96-well microtiter plate (Greiner) coated with 10 μg/ml Poly-D-lysine (Sigma-Aldrich). Calcium imaging experiments using an automated fluorometric imaging plate reader (FLIPR) (Molecular Devices) have been performed 24-32 h later essentially as described previously (Bufe B., et al. (2005) Curr. Biol. 15, 322-327). Tastants (Sigma-Aldrich) were dissolved and administered in the following solution: 130 mM NaCl, 5 mM KCl, 10 mM HEPES, 2 mM CaCl2, and 10 mM glucose, pH 7.4. Data were averaged over several independent experiments and processed with SigmaPlot (SPSS). For calculation of dose-response curves, the peak fluorescence responses after addition of compounds were corrected for and normalized to background fluorescence (ΔF/F=(F−F0)/F0), and baseline noise was subtracted.
To test whether dimethylthiourea, diethylthiourea and mercaptobenzimidazole are capable of inhibiting the response of other TAS2R38 agonists we next tested them as mixtures with the structurally divergent TAS2R38 agonists propylthiouracil, phenylthiourea and methimidazole.
To further investigate the mechanism of the inhibition of TAS2R38 we examined the effect of increasing diethylthiourea concentrations on the dose response curves of propylthiouracil and phenylthiourea (FIG. 5). […] Thus, the likeliest explanation for the observed right shift in the EC50 values caused by negative cooperativity of the inhibitor binding site on the agonist binding site of PROP and PTC.

TAS2R38 [2] = molecular target: T1, TAS2R38; assay: Calcium imaging (FLIPR) of TAS2R38-PAV transfected HEK-293T G16gust44 cells, activation by compound alone; type: cell-based
Text: as §1
During the structure-function-analysis of TAS2R38 agonists we identified and tested various compounds that contain an N—C═S moiety, which is a hallmark of TAS2R38 agonists. […] Two other compounds, dimethylthiourea and mercaptobenzimidazole that also have an N—C═S moiety (FIG. 1) could activate the receptor only at low to concentrations (EC50 of 0.5 mM for dimethylthiourea and 1.0 μM for mercaptobenzimidazole). Application of dimethylthiourea in concentrations above 3 mM led to a dose dependant reduction of the signal amplitude (FIG. 2).

hTAS2R16 = molecular target: T2, hTAS2R16 (Homo sapiens, UniProt Q9NYV7); assay: Calcium imaging of hTAS2R16 transfected cells stimulated with salicin, specificity test; type: cell-based; conditions: 10 mM DMTU, 5 mM DETU or 0.1 mM MBI, FIG. 4
T2 construct: expressed in transfected cells
T2 sequence (Q9NYV7 1-291): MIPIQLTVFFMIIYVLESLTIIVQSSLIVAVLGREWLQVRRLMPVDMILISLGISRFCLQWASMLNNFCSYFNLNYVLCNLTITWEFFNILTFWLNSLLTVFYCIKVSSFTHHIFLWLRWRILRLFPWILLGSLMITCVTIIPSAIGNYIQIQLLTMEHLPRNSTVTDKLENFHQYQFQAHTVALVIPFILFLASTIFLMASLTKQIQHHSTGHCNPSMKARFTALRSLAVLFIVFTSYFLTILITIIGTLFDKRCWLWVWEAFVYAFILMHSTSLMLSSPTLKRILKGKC
Text: as §1
(§2) In contrast to the observed effects on TAS2R38, the response of cells expressing hTAS2R16 or mTas2r5 to their cognate ligands salicin or cycloheximide was not altered by any of the three TAS2R38 antagonists in concentrations that inhibited response of TAS2R38 (FIG. 4).

mTas2r5 = molecular target: T3, mTas2r5 (Mus musculus, UniProt Q9JKT4); assay: Calcium imaging of mTas2r5 transfected cells stimulated with cycloheximide, specificity test; type: cell-based, murine; conditions: 10 mM DMTU, 5 mM DETU or 0.1 mM MBI, FIG. 4
T3 construct: expressed in transfected cells
T3 sequence (Q9JKT4 1-300): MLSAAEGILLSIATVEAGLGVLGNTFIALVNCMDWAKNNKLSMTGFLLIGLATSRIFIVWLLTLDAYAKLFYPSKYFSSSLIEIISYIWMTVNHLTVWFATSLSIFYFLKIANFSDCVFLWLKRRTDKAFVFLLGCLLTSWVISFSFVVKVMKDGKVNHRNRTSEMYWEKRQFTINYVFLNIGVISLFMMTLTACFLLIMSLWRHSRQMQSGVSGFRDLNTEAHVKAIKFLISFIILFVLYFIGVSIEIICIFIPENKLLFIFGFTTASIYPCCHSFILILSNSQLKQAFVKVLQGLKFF
Text: as §1, §2

[3] = TAS2R38-PAV transfected cells, compound alone, FIG. 2, read-out: EC50 (activation of the receptor)

SMILES	EC50 (TAS2R38 [1]; EC50 (result obtained for propylthiouracil), +0.25 mM diethylthiourea)	EC50 (TAS2R38 [1]; EC50 (result obtained for propylthiouracil), +0.5 mM diethylthiourea)	EC50 (TAS2R38 [1]; EC50 of phenylthiourea, +0.25 mM diethylthiourea)	EC50 (TAS2R38 [1]; EC50 of phenylthiourea, +0.5 mM diethylthiourea)	EC50 (TAS2R38 [2]; EC50 (result obtained for propylthiouracil), alone, TAS2R38 transfected cells, FIG. 5)	EC50 (TAS2R38 [2]; EC50 of phenylthiourea, alone, TAS2R38 transfected cells, FIG. 5)	inhibition of the responses of TAS2R38 agonists (TAS2R38 [1])	effect on response of hTAS2R16 expressing cells to salicin (hTAS2R16)	concentrations at which the compound acts as agonist of hTAS2R38 (TAS2R38 [2])	EC50 (TAS2R38 [2]; [3])	concentrations that pronouncedly reduced the response of TAS2R38 receptor expressing cells (TAS2R38 [2]; compound alone, FIG. 2)	effect on response of mTas2r5 expressing cells to cycloheximide (mTas2r5)	concentrations leading to a dose dependant reduction of the signal amplitude (TAS2R38 [2]; TAS2R38 expressing cells, compound alone, FIG. 2)	effect on signal amplitudes of the agonists (TAS2R38 [1]; increasing diethylthiourea concentrations, not abolished by increasing agonist concentrations)	activation of the receptor (TAS2R38 [2]; TAS2R38-PAV transfected cells, compound alone, FIG. 2)
NC(=S)Nc1ccccc1 [phenylthiourea, phenylthiocarbamide, reference compound]	3.4 ± 2.5 µM	6.3 ± 3.9 µM	2.8 ± 0.8 µM	4.8 ± 1.8 µM	1.1 ± 0.8 µM	1.4 ± 0.9 µM									
Sc1nc2ccccc2[nH]1 [mercaptobenzimidazole, 2-mercaptobenzimidazole]							inhibited the responses of all tested agonist	not altered	below 0.01 mM	1 µM	above 10 μM	not altered			
CNC(=S)NC [dimethylthiourea, N,N′-dimethylthiourea]							inhibited the responses of all tested agonist	not altered	below 3 mM	500 µM		not altered	above 3 mM		
CCNC(=S)NCC [diethylthiourea, N,N′-diethylthiourea]							inhibited the responses of all tested agonist	not altered				not altered		pronounced reduction of the signal amplitudes	did not activate the receptor at any tested concentration
